Laboratory results published in patent publication US12012411B2, “Viral replication inhibitors” (Katholieke Universiteit Leuven, priority 2011, dated 2024).
pEC50: −log10 of the molar value.

Assays:
[1] = tested on: DENV-2 NGC; assay: Antiviral activity against DENV-2 NGC in Vero-B cells (viral RNA load by RT-qPCR); type: cell-based, Dengue virus; conditions: Dengue virus, DENV2, Vero B, DENV-2 in Vero-B cells; inhibition of viral RNA replication by 50% (Table 3)
[2] = in vitro; conditions: African green monkey; for CC50 at 4 days: uninfected quiescent Vero-B cells

Row | SMILES | pEC50 [1] | CC50 at 4 days [2] | CC50 [2]
1 | CCOc1cccc(NC(C(=O)c2c[nH]c3ccccc23)c2ccccc2)c1 (centres unmarked) [CPD-003] | 6.96 | 13 µM | –
2 | O=C(c1c[nH]c2ccccc12)C(Nc1cccc(Cl)c1)c1ccccc1 (centres unmarked) [CPD-006] | 6.12 | 6 µM | –
3 | O=C(c1c[nH]c2ccccc12)C(Nc1ccc(F)c(F)c1)c1ccccc1 (centres unmarked) [CPD-007] | 5.60 | 5 µM | –
4 | O=C(c1c[nH]c2ccccc12)C(Nc1cccc(C(F)(F)F)c1)c1ccccc1 (centres unmarked) [CPD-009] | 6.18 | 4 µM | –
5 | COc1cc(NC(C(=O)c2c[nH]c3ccccc23)c2ccccc2)cc(C(F)(F)F)c1 (centres unmarked) [CPD-014] | 7.70 | 8 µM | –
6 | COc1cccc(N(C)C(C(=O)c2c[nH]c3ccccc23)c2ccccc2)c1 (centres unmarked) [CPD-018] | 6.43 | 19 µM | –
7 | Cc1cc(NC(C(=O)c2c[nH]c3ccccc23)c2ccccc2)no1 (centres unmarked) [CPD-022] | 4.89 | 77 µM | –
8 | COc1cccc(NC(C(=O)c2c[nH]c3ccccc23)c2cccs2)c1 (centres unmarked) [CPD-024] | 6.30 | 14 µM | –
9 | COc1cccc(NC(C(=O)c2c[nH]c3ccccc23)c2nccn2C)c1 (centres unmarked) [CPD-026] | 4.76 | > 138 µM | –
10 | COc1cccc(NC(C(=O)c2c[nH]c3ccccc23)c2ncc[nH]2)c1 (centres unmarked) [CPD-028] | 3.87 | > 144 µM | –
11 | O=C(c1c[nH]c2ccccc12)C(Nc1ccnc(O)c1)c1ccccc1 (centres unmarked) [CPD-031] | 4.30 | > 145 µM | –
12 | O=C(c1c[nH]c2ccccc12)C(NCc1ccccn1)c1ccccc1 (centres unmarked) [CPD-032] | 4.26 | > 146 µM | –
13 | O=C(c1c[nH]c2ccccc12)C(NCc1cccs1)c1ccccc1 (centres unmarked) [CPD-033] | 5.04 | 71 µM | –
14 | O=C(c1c[nH]c2ccccc12)C(NCc1ccco1)c1ccccc1 (centres unmarked) [CPD-034] | 4.33 | > 151 µM | –
15 | COc1cccc(NC(C(=O)c2c[nH]c3ccccc23)c2cccc(C#N)c2)c1 (centres unmarked) [CPD-041] | 6.30 | 14 µM | –
16 | COc1cccc(NC(C(=O)c2c[nH]c3ccccc23)c2cnn(C)c2)c1 (centres unmarked) [CPD-042] | 4.90 | > 138 µM | –
17 | CCc1cccc(NC(C(=O)c2c[nH]c3ccccc23)c2ccccc2)c1 (centres unmarked) [CPD-046] | 6.19 | 17 µM | –
18 | COc1cccc(NC(C(=O)c2c[nH]c3ccccc23)c2cccc3cnccc23)c1 (centres unmarked) [CPD-047] | 6.38 | 16 µM | –
19 | COc1cccc(NC(C(=O)c2c[nH]c3ccccc23)c2ccc(-c3cncnc3)cc2)c1 (centres unmarked) [CPD-048] | 5.68 | > 115 µM | –
20 | O=C(c1c[nH]c2ccccc12)C(Nc1ccc2nccnc2c1)c1ccccc1 (centres unmarked) [CPD-050] | 5.62 | 87 µM | –
21 | CNS(=O)(=O)c1cccc(NC(C(=O)c2c[nH]c3ccccc23)c2ccccc2)c1 (centres unmarked) [CPD-052] | 5.43 | 52 µM | –
22 | COc1cccc(NC(C(=O)c2c[nH]c3ccccc23)c2cccc(-c3cncnc3)c2)c1 (centres unmarked) [CPD-054] | 5.68 | > 115 µM | –
23 | O=C(c1c[nH]c2ccccc12)C(Nc1cccc(-n2cncn2)c1)c1ccccc1 (centres unmarked) [CPD-058] | 5.55 | 64 µM | –
24 | O=C(c1c[nH]c2ccccc12)C(Nc1cccc(-c2cnco2)c1)c1ccccc1 (centres unmarked) [CPD-059] | 5.90 | 16 µM | –

Row | SMILES | pEC50 [1] | CC50 at 4 days [2] | CC50 [2]
25 | COc1cccc(NC(C(=O)c2c[nH]c3ccccc23)c2ccc3c(c2)n(C)c(=O)n3C)c1 (centres unmarked) [CPD-060] | 4.99 | > 113 µM | –
26 | COc1cc(NC(C(=O)c2c[nH]c3ccccc23)c2ccc(C#N)cc2)ccn1 (centres unmarked) [CPD-061] | 5.77 | 59 µM | –
27 | COc1cc(C)nc(NC(C(=O)c2c[nH]c3ccccc23)c2ccccc2)n1 (centres unmarked) [CPD-062] | 6.24 | > 134 µM | –
28 | COc1cccc(NC(C(=O)c2c[nH]c3ccccc23)c2ccc(O)nc2)c1 (centres unmarked) [CPD-063] | 4.84 | > 134 µM | –
29 | COc1cc(NC(C(=O)c2c[nH]c3ccccc23)c2cn3ccccc3n2)ccn1 (centres unmarked) [CPD-064] | 5.06 | 72 µM | –
30 | NC(=O)c1cccc(NC(C(=O)c2c[nH]c3ccccc23)c2ccccc2)c1 (centres unmarked) [CPD-065] | 4.92 | 90 µM | –
31 | CCOC(=O)c1cccc(NC(C(=O)c2c[nH]c3ccccc23)c2ccccc2)c1 (centres unmarked) [CPD-068] | 5.88 | 12 µM | –
32 | COc1cc(NC(C(=O)c2c[nH]c3cc(Cl)ccc23)c2cn3ccccc3n2)ccn1 (centres unmarked) [CPD-069] | 5.67 | 71 µM | –
33 | O=C(O)c1cccc(NC(C(=O)c2c[nH]c3ccccc23)c2ccccc2)c1 (centres unmarked) [CPD-071] | 4.22 | 135 µM | –
34 | COc1cc(NC(C(=O)c2c[nH]c3ccccc23)c2ccccc2)ncn1 (centres unmarked) [CPD-072] | 5.16 | 68 µM | –
35 | COc1cc(NC(C(=O)c2c[nH]c3cc(Cl)ccc23)c2ccccc2)ccn1 (centres unmarked) [CPD-073] | 5.63 | 76 µM | –
36 | COc1cc(NC(C(=O)c2c[nH]c3ccccc23)c2cccnc2)ccn1 (centres unmarked) [CPD-074] | 6.09 | 77 µM | –
37 | COc1cc(NC(C(=O)c2c[nH]c3cc(F)ccc23)c2ccccc2)ccn1 (centres unmarked) [CPD-075] | 5.82 | 102 µM | –
38 | COc1ccc2c(C(=O)C(Nc3ccnc(OC)c3)c3ccccc3)c[nH]c2c1 (centres unmarked) [CPD-076] | 5.42 | 115 µM | –
39 | COc1ccc2[nH]cc(C(=O)C(Nc3ccnc(OC)c3)c3ccccc3)c2c1 (centres unmarked) [CPD-078] | 4.93 | 109 µM | –
40 | COc1cccc(NC(C(=O)c2c[nH]c3ccccc23)c2cn3c(n2)COCC3)c1 (centres unmarked) [CPD-080] | 6.00 | > 124 µM | –
41 | COc1cc(NC(C(=O)c2c[nH]c3ccccc23)c2cn3c(F)cccc3n2)ccn1 (centres unmarked) [CPD-081] | 4.97 | 50 µM | –
42 | COc1cc(NC(C(=O)c2c[nH]c3ccccc23)c2cscn2)ccn1 (centres unmarked) [CPD-082] | 4.21 | 109 µM | –
43 | COC(=O)c1ccc2c(C(=O)C(Nc3cccc(OC)c3)c3ccccc3)c[nH]c2c1 (centres unmarked) [CPD-085] | 7.15 | 16 µM | –
44 | COc1cccc(NC(C(=O)c2c[nH]c3ccccc23)c2cn3cccc(C)c3n2)c1 (centres unmarked) [CPD-088] | 5.60 | > 121 µM | –
45 | COc1ccnc(NC(C(=O)c2c[nH]c3ccccc23)c2ccccc2)n1 (centres unmarked) [CPD-089] | 6.17 | > 139 µM | –
46 | COc1cc(NC(C(=O)c2c[nH]c3ccccc23)c2ccc(F)cc2)ccn1 (centres unmarked) [CPD-090] | 5.54 | 13 µM | –
47 | COc1cc(NC(C(=O)c2c[nH]c3cc(C#N)ccc23)c2ccccc2)ccn1 (centres unmarked) [CPD-093] | 4.77 | 87 µM | –
48 | COc1cccc(NC(C(=O)c2c[nH]c3cc(C#N)ccc23)c2ccccc2)c1 (centres unmarked) [CPD-094] | 6.85 | 11 µM | –

Row | SMILES | pEC50 [1] | CC50 at 4 days [2] | CC50 [2]
49 | COc1cccc(NC(C(=O)c2c[nH]c3ccccc23)c2cn3ccc(C)cc3n2)c1 (centres unmarked) [CPD-096] | 5.54 | > 121 µM | –
50 | COc1cc(NC(C(=O)c2c[nH]c3ccccc23)c2ccc3[nH]ccc3c2)ccn1 (centres unmarked) [CPD-097] | 5.63 | 12 µM | –
51 | COc1cccc(NC(C(=O)c2c[nH]c3ccccc23)c2cn3cc(C)ccc3n2)c1 (centres unmarked) [CPD-098] | 4.97 | > 121 µM | –
52 | COc1cc(NC(C(=O)c2c[nH]c3ccc(Cl)cc23)c2ccccc2)ccn1 (centres unmarked) [CPD-099] | 5.75 | 12 µM | –
53 | COc1cc(NC(C(=O)c2cn(C)c3ccccc23)c2ccccc2)ccn1 (centres unmarked) [CPD-100] | 4.92 | 42 µM | –
54 | COc1cc(NC(C(=O)c2c[nH]c3c(Cl)cccc23)c2ccccc2)ccn1 (centres unmarked) [CPD-101] | 5.31 | 11 µM | –
55 | COc1cccc(NC(C(=O)c2c[nH]c3ccccc23)c2cc(C)no2)c1 (centres unmarked) [CPD-102] | 6.21 | 65 µM | –
56 | COc1cccc(NC(C(=O)c2cn(CCN)c3ccccc23)c2ccccc2)c1 (centres unmarked) [CPD-105] | 5.91 | – | 14 µM
57 | COc1cccc(NC(C(=O)c2cn(CC(=O)O)c3ccccc23)c2ccccc2)c1 (centres unmarked) [CPD-106] | 5.05 | – | > 120 µM
58 | CCn1nccc1C(Nc1cccc(OC)c1)C(=O)c1c[nH]c2ccccc12 (centres unmarked) [CPD-107] | 5.10 | 20 µM | –
59 | COc1cccc(NC(C(=O)c2c[nH]c3ccccc23)c2cn3c(F)cccc3n2)c1 (centres unmarked) [CPD-109] | 6.28 | 84 µM | –
60 | COc1cccc(NC(C(=O)c2c[nH]c3ccccc23)c2cn3cc(F)ccc3n2)c1 (centres unmarked) [CPD-110] | 6.24 | 73 µM | –
61 | COc1cccc(NC(C(=O)c2cn(S(C)(=O)=O)c3ccccc23)c2ccccc2)c1 (centres unmarked) [CPD-111] | 6.36 | > 115 µM | –
62 | COc1cccc(NC(C(=O)c2c[nH]c3ccccc23)c2ccc(COCN(C)C)cc2)c1 (centres unmarked) [CPD-112] | 5.49 | 12 µM | –
63 | CCOC(=O)Cn1cc(C(=O)C(Nc2cccc(OC)c2)c2ccccc2)c2ccccc21 (centres unmarked) [CPD-113] | 6.31 | – | > 112 µM
64 | COc1cccc(NC(C(=O)c2cn(CCN(C)C)c3ccccc23)c2ccccc2)c1 (centres unmarked) [CPD-114] | 5.96 | – | 52 µM
65 | COc1cccc(N2C(=O)CN(C)n3cc(c4ccccc43)C(=O)C2c2ccccc2)c1 (centres unmarked) [CPD-115] | 4.98 | 49 µM | –
66 | COc1cccc(NC(C(=O)c2cn(C)c3ccccc23)c2cc(C)on2)c1 (centres unmarked) [CPD-117] | 5.45 | > 133 µM | –
67 | COc1cc(NC(C(=O)c2cn(S(C)(=O)=O)c3ccccc23)c2ccccc2)ccn1 (centres unmarked) [CPD-121] | 5.24 | 60 µM | –
68 | COc1cccc(NC(C(=O)c2c[nH]c3ccccc23)c2ccc(CN(C)C)cc2)c1 (centres unmarked) [CPD-124] | 6.25 | 3 µM | –
69 | COc1cccc(NC(C(=O)c2c[nH]c3ccccc23)c2[nH]cnc2C)c1 (centres unmarked) [CPD-125] | 5.14 | > 138 µM | –
70 | COc1cccc(NC(C(=O)c2c[nH]c3ccccc23)c2ccc(CO)cc2)c1 (centres unmarked) [CPD-127] | 5.67 | 72 µM | –
